Where “and” joins values, the source holds several entries; their conditions need not be identical. Equal entries are not always repeated. Entries after “also recorded” stand apart in the source; their conditions may differ. Marks after values point to notes of the source that are not given here.
What was measured:
normotensive Wistar rats = assay: Arterial hemodynamics by telemetry in normotensive Wistar rats; type: in vivo, rat
Description: The Dataquest A.R.T.™ acquisition and analysis system (Data Sciences International [DSI], St. Paul, MN) was employed to monitor and analyze hemodynamic data from conscious, freely moving rats surgically implanted with a telemetry pressure transmitter (PA-C40). Telemetry transmitter implantation was performed on rats under sterile conditions. Rats were anesthetized with isoflurane and body temperature was maintained with a heating pad during surgery. A laparotomy was performed to expose the abdominal aorta. The catheter tip of the telemetry transmitter was inserted into the abdominal aorta and secured with a 5-0 silk suture (Ethicon, Inc., Somerville, NJ). The abdominal incision was closed with uninterrupted suture (4-0 silk, Ethicon, Inc., Somerville, NJ) and the telemetry transmitter was placed in the abdominal cavity and secured to the abdominal wall. Approximately 100 µl of 0.25% marcaine was applied directly to the closed abdominal wall, and the skin was then closed with suture (4-0 Vicryl® absorbable, Ethicon, Inc., Somerville, NJ). Buprenorphine (0.05 mg/kg/day, subcutaneous [s.c.]) was administered immediately after the surgery for postoperative pain relief. After recovery from anesthesia, rats were returned to their home cages, placed on DSI receivers, and allowed a 5- to 14-day recovery period. Arterial hemodynamics were measured continuously and recorded throughout the study. For acute studies, analysis was based on hourly averages, for chronic studies, analysis was based on daily or weekly averages.
Spontaneously hypertensive rats (SHRs) (n=6, male, 230–250 g, 14 weeks of age) and Wistar rats (n=6, male, 230–250 g, 12 weeks of age) were implanted with telemetry transmitters as described above. Olinciguat was formulated as a suspension in a vehicle containing 0.5% methylcellulose and 0.2% Tween. Rats were p.o. dosed with a dosing volume of 5 ml/kg. […] Using plasma from tail vein, olinciguat plasma concentrations were determined at 1, 6, and 24 h post-dose on day 4 and reported as the mean from Wistar (n=3) and SHR (n=3). Hemodynamics were recorded hourly during a 24-h baseline period and over the first 3 days of dosing.
Maximum change from baseline of mean arterial pressure (MAP) was calculated using the 24-h pre-first dose average subtracted from the lowest MAP value recorded within 2 h following dosing. The 1-h post-dose change from baseline heart rate (HR) was calculated using the 3-h pre-first dose average subtracted from the 1-h post-dose average.
In the hemodynamic study in Wistar and SHR, hourly MAP data were analyzed using a repeated measures two-way ANOVA, with time and treatment group as independent variables. Significance at each timepoint was determined as compared to the vehicle control using a Dunnett's post-hoc test.

[1] = ZSF1 rat model of metabolic syndrome and diabetic nephropathy; type: in vivo; conditions: male, rat, plasma, oral; obese ZSF1, enalapril + olinciguat 30 mg/kg/day in chow; read-out: average total plasma concentration of olinciguat at Week 10
Description: (§1) Lean (n=8, 370–420 g, 15 weeks) and obese (n=32, 500–630 g, 15 weeks) male ZSF1 rats were studied. Rats were treated with enalapril to reflect standard of care drug treatment for patients with diabetic kidney disease. Dose modeling based on allometric scaling relationships estimated that a 10 mg/day enalapril dose in humans (within usual dose range of 10–40 mg based on prescribing information) corresponds to 1 mg/kg/day in rats ([Nair and Jacob, 2016]). To measure hemodynamics in freely moving animals, ZSF1 obese rats were implanted with telemetry transmitters (HD-S10, Data Sciences International) at 9–10 weeks of age, as described above.
(§2) The study included a 10-day pretreatment period and a 10-week treatment period. There were five groups of rats in the study. The lean ZSF1 control group (lean control, n=8) and one obese group (obese control, n=8) were fed normal chow and drinking water throughout the 10-day pretreatment period and the 10-week treatment period. Three groups of obese rats were treated with enalapril in drinking water (equivalent to 3 mg/kg/day) throughout the 10-day pretreatment period and the 10-week treatment period. During the treatment period, these enalapril-treated obese rats were administered normal chow (ENP, n=8) or chow containing olinciguat targeting the dose of 10 mg/kg/day (ENP+OLI10, n=8) or 30 mg/kg/day (ENP+OLI30, n=8). Blood and 24-h urine samples were obtained from all animals at baseline (immediately prior to initiation of enalapril treatment), the end of the 10-day pretreatment period (Day 10) and at week 5 and week 10 of the treatment period. Plasma samples were obtained from all olinciguat-treated animals for measurement of olinciguat exposure at week 10. During week 9 of treatment, rats were fasted for 16 h overnight prior to determination of fasting blood glucose using the AlphaTRAK (Abbott) glucose monitoring system. Body weight was measured once every other week. At the end of the study, rats were anesthetized and perfused via the left ventricle with heparinized PBS (1 U/ml heparin) containing IBMX (1 mM). Organs were collected and weighed, and plasma was collected in EDTA tubes. For serum, blood was collected in serum separator tubes, maintained at room temperature for at least 30 min and centrifuged at 6,000 rpm for 10 min, and then stored at −80°C until analysis. Urine and serum samples were analyzed using the Randox Daytona Clinical Chemistry Analyzer (Randox, Kearneysville, WV) for urine protein, serum cholesterol and serum triglycerides. All measurements were performed in accordance with manufacturer's instructions.
(§3) For histology, one kidney from each rat was fixed in 10% formalin, then embedded in paraffin. Slides were prepared and stained with hematoxylin and eosin (H&E) and periodic-acid Schiff (PAS) for light microscopic analysis. Kidney sections were evaluated for the presence of glomerular pathology, tubular damage, interstitial inflammation, interstitial fibrosis, and vascular alterations. Severity-based scoring based on these evaluations was performed by a trained pathologist.
(§4) For the ZSF1 experiment, data are expressed as mean ± standard error of the mean (SEM).
(§5) In the ZSF1 study, change from baseline NT-proBNP, week 10 heart, kidney, and liver weight, urine volume, cholesterol, triglycerides, glucose, and renal histopathology sum score were analyzed by one-way ANOVA corrected for multiple comparisons using Tukey's method. Statistically significant differences vs the obese control and vs the ENP group are indicated in the results. MAP and UPE were analyzed by an ordinary two-way ANOVA with timepoint and treatment group as independent variables, followed by a Tukey's multiple comparisons test. Within each treatment group, significant differences vs baseline are indicated in the results. At week 10, statistically significant differences vs the obese control and vs the ENP control are also indicated in the results.

obese ZSF1 rats = assay: as above; type: in vivo
Description: as §1, §2, §3, §4, §5

[2] = obese ZSF1, enalapril 3 mg/kg/day + olinciguat 30 mg/kg/day

concentration at 10 weeks [1]: 510 to 610 nM
Olinciguat concentration (free) (obese ZSF1 rats; obese ZSF1, olinciguat 30 mg/kg/day, total plasma concentration x 1.0% free): 5.1–6.1 nM^e
Compound: NC(=O)[C@](O)(CNc1nc(-c2cc(-c3ccon3)n(Cc3ccccc3F)n2)ncc1F)C(F)(F)F [olinciguat, (R)-3,3,3-trifluoro-2-(((5-fluoro-2-(1-(2-fluorobenzyl)-5-(isoxazol-3-yl)-1H-pyrazol-3-yl)pyrimidin-4-yl)amino)methyl)-2-hydroxypropanamide]
MAP vs vehicle-treated rats (normotensive Wistar rats; 1 mg/kg p.o. QD): not significantly different from vehicle at any time
MAP vs vehicle-treated rats (normotensive Wistar rats; 3 mg/kg p.o. QD): lower only on the second and third day of dosing
MAP vs vehicle-treated rats (normotensive Wistar rats; 10 mg/kg p.o. QD): lower on all 3 days of dosing
maximum absolute change in MAP (normotensive Wistar rats; 10 mg/kg p.o. QD, day 3, 10 mg/kg): −11 ± 3 mmHg and −11^b mmHg
cholesterol, percent lower than obese control (obese ZSF1 rats; [2]): 41%
increase of proteinuria over 10 weeks (obese ZSF1 rats; [2]): 56%
liver weight (obese ZSF1 rats; [2]): ↓ liver weight
serum cholesterol at week 10 (obese ZSF1 rats; [2]): ↓ cholesterol
serum triglycerides at week 10 (obese ZSF1 rats; [2]): ↓ triglycerides
total kidney weight (obese ZSF1 rats; [2]): did not develop renal hypertrophy; also recorded: ↓ kidney weight
triglycerides, percent lower than obese control (obese ZSF1 rats; [2]): 52%
fasting blood glucose (obese ZSF1 rats; obese ZSF1, enalapril 3 mg/kg/day + olinciguat 30 mg/kg/day, week 9): ↓glucose
UPE at week 10 (obese ZSF1 rats; obese ZSF1, enalapril 3 mg/kg/day + olinciguat 30 mg/kg/day, obese control 1.42 ± 0.12): ↓ proteinuria
renal pathology sum score (obese ZSF1 rats; obese ZSF1, enalapril 3 mg/kg/day + olinciguat 30 mg/kg/day, p < 0.0001 vs obese control): significantly improved the composite renal histopathological score; also recorded: ↓ renal histopath
glucose, percent lower (obese ZSF1 rats; obese ZSF1, treatment with olinciguat (discussion)): 43%
difference in MAP at end of treatment between enalapril+olinciguat 30 mg/kg and enalapril monotherapy groups (obese ZSF1 rats; obese ZSF1, week 10): −8^d mmHg
